In experiment [1] the test system is cortico-striatal co-cultures (YAC128). The settings on record: Y128, 1 μM, n=4.
Description: For cortico-striatal co-cultures, brains were removed and transferred to Hibernate E medium (Thermo Fisher Sci., catalog no: A1247601) for up to 24 h. […] The cortex and striatum were micro-dissected in ice-cold Hank's balanced salt solution (HBSS; Gibco), then diced and pooled per genotype. […] The dissociated tissues were centrifuged at 145×g for 5 min and the pellet was then triturated with a pipette five to six times. […] The cells were fed with ⅓ volume fresh medium every fifth day.
The stained cells were washed twice with PBS and fixed with ice-cold methanol for 15 min at room temperature. Mitochondria were visualized using the SP5 confocal microscope (Leica). 8 random areas were sampled. Circularity was determined using ImageJ with an internal plugin.
The subject of experiment [2] is YAC128 striatal neurons. The settings on record: 1 μM. Here is the method: Briefly, plasmid was diluted in TE (in mM: 1 Tris-HCl pH 7.3, 1 mM EDTA), followed by the addition of CaCl2 (in mM: 2.5 CaCl2 in 10 HEPES, pH 7.2). The DNA solution was carefully added to 2×HEBS (in mM: 12 dextrose, 50 HEPES, 10 KCl, 280 NaCl and 1.5 Na2HPO4·2H2O, pH 7.2) while bubbling air through the solution. The mixture was then incubated for 25 min at room temperature. The precipitates were added dropwise to the coverslips in Neurobasal medium and incubated for 80 minutes at 37° C. The DNA-Ca^2+-phosphate precipitates were dissolved with freshly-made dissolution medium (Neurobasal medium with 20 mM HEPES, pH 6.8) and incubated for 7 min at room temperature. The transfected neurons were then washed with Neurobasal medium and transferred back to their original dishes containing conditioned culture medium until DIV12.

In experiment [3] the test system is HD human lymphoblasts. The settings on record: pridopidine 24 h prior to H2O2 6 h, p=0.0016. As to the method:
Cell viability was assessed on lymphoblasts using the MTS assay, a measure of mitochondrial function and cell survival. The assay was performed according to the manufacturer's instructions (Promega, catalog no. G1112). In the day of experiment, MTS reagent was added to the culture media (1:10) and incubated at 37° C. for 4 hours. Then, lymphoblasts were centrifuged at 145×g for 5 min and media was collected. The absorbance of the formazan dye produced by viable cells was quantified in the medium at OD=490 nm.

In experiment [4] the test system is CHOP, GADD34, ATF6, XBP1s in cells expressing myc-Htt96Q or myc-Htt20Q. Here is the method:
Total cell RNA was extracted with TRIzol reagent (Invitrogen) according to the manufacturer's instructions. […] Real-time PCR was carried out using a CFX Connect Real-Time PCR Detection System (BioRad) and the amplifications were done using the SYBR Green PCR Master Mix (Cat.No. pb089617-100-1) (Pcrbio). Reactions were run in triplicates in three independent experiments. Housekeeping gene GAPDH was used as an internal control to normalize the variability of expression levels.
(§1) Cells were lysed in PBS containing 1% Triton X-100, 0.5% sodium deoxycholate with protease inhibitors and centrifuged to pellet insoluble aggregates, debris and nuclei. Phosphatase inhibitor cocktail 2 and 3 and 10 mM […] phosphate were added to the lysis buffer to inhibit phosphatases for detection of phosphorylated proteins. Supernatants were separated from pellets and incubated in loading buffer for 5 min at 100° C., pellets were incubated for 10 min at 100° C. After SDS-PAGE and transfer to nitrocellulose membrane, blocking was done in 5% low-fat milk and 0.1% Tween-20 in PBS for 1 h. Incubation with the primary antibody was overnight at 4° C. and after three washes in 0.1% Tween-20 in PBS, incubation with the appropriate secondary antibody was for 1 h at room temperature. After washing, enhanced chemiluminescence assay was performed and the membrane was exposed and quantified in a Bio-Rad ChemiDocXRS Imaging System (Bio-Rad, Hercules, CA).

Experiment [5] has as its system S1R in STHdh^Q7/7 cells. Here is the method: (§2) Transfections of HEK 293 cells were carried out according to the calcium phosphate method. STHdh^Q7/7 cells are a murine striatal cell line with a stable knock-in of the full-length wild type (WT) human Htt containing a polyglutamine stretch of 7 glutamines (Trettel et al. 2000). […] No cell line used is listed as a commonly misidentified cell line. Cell lines were not authenticated. To reduce any risk of cross-contamination they were grown for a limited number of passages. Transient transfections of NIH 3T3 and STHdh^Q7/7 cells were performed using an MP-100 Microporator (Digital Bio) or ViaFect™ Transfection Reagent (Cat.No. E4981) (Promega), according to the manufacturer's protocols.
as §1
(§3) Briefly, cells grown for 24 h after transfection on coverslips in 24-well plates were fixed with 3% paraformaldehyde, followed by blocking with 50 mM glycine in PBS and normal goat IgG in PBS/2% BSA. The cells were incubated with primary antibodies for 1 h, washed and incubated for 30 min with secondary antibodies, followed by washes. Nuclei were stained with 4′,6-diamidino-2-phenylindole (Cat.No. F6057) (Sigma). Confocal microscopy was done on a Zeiss laser scanning confocal microscope (LSM 510; Carl Zeiss, Jena, Germany) as described previously. ImageJ was used to quantify fluorescence intensity in images of treated individual cells compared to untreated cells with and without Htt96Q-mCherry aggregates and to calculate Mander's coefficients for colocalization studies.

In experiment [6] the target is S1R in STHdh^Q7/7 cells (Mus musculus, UniProt O55242). The settings on record: 20 h; P (150 μM vs. 0)<0.05. As to the method: as §2, §1, §3
S1R in STHdh^Q7/7 cells (Mus musculus, UniProt O55242), sequence (O55242 whole entry): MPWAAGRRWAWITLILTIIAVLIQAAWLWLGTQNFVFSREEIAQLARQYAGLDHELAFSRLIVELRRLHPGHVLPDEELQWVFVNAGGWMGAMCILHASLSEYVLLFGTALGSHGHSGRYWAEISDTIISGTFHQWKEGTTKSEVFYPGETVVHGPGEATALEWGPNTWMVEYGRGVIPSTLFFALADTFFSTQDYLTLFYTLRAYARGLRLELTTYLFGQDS
For experiment [7], the system named is Htt96Q aggregates in S1R+/+ and S1R−/− HEK 293 cells. Particulars: 24 h. As to the method: HEK 293 cells were grown on 60 mm plates and transfected for the expression of myc-Htt96Q. Cells were collected 24 hours post-transfection. After washing with 1×PBS cells were resuspended in 100 μl of 1×PBS+ protease inhibitor cocktail. Sonication was done in a sonic bath for 3×10 sec (amp5-6), leaving on ice for 30 sec between the sonications. Cell debris were removed by centrifugation at 16,000×g for 15 min and protein concentration was measured in the supernatant using the BCA method. Samples containing 50 μg total protein were taken and the volume adjusted to 100 μl with 1% SDS in PBS. After incubation for 5 min at 100° C. sample duplicates were loaded on the slots of a nitrocellulose membrane pre-wet with 1% SDS in PBS in a dot-blotting apparatus. Slots were washed twice with 1 ml 1% SDS in PBS and the membrane was transferred to 5% milk blocking solution. Immunoblotting was performed as described above.

In experiment [8] the test system is HD lymphoblasts. Particulars: 5 μM, H2O2-challenged conditions, p=0.0001.
Description: H2O2 (9.8 M stock) was dissolved in cell culture medium prior to experimentation. Primary neurons and lymphoblasts cultured on PDL-coated plates were treated with H2O2 (0-1 mM) for up to 6 hours. Oxidative stress was measured using the CellROX red reagent (Life Technologies, catalog no. C10422). Cells were treated with 5 μM CellRox red in complete medium, then incubated for 30 minutes. The cells were then washed with PBS and imaged on a Zeiss Axiovert inverted microscope (Zeiss, Jena, Germany) using a 10× objective. Exposure settings were maintained for all samples. Eight random fields were sampled, and the fluorescence intensity was measured using ImageJ software and normalized to the DAPI signal.
Setting [9] is: cells expressing mutant Htt96Q, 48 h.

From patent US12685725B2, “Pridopidine for the treatment of mitochondrial-associated diseases and disorders and endoplasmic reticulum (ER) stress” (PRILENIA NEUROTHERAPEUTICS LTD., priority 2019, dated 2026) come the findings set out here.

In the case of `CCCN1CCC(c2cccc(S(C)(=O)=O)c2)CC1` [Pridopidine, 4-[3-(methylsulfonyl)phenyl]-1-propyl-piperidine], the “mitochondrial morphology (percentage of circular and elongated mitochondria)” value in experiment [1] is given as “corrects Y128 morphology to WT levels”. Further, the “velocity of motile mitochondria” value in experiment [2] (YAC128 neurons, p<0.05) is listed as “This decrease was ameliorated”. In experiment [2] (YAC128 striatal neurons, p=0.0286), the “proportion of motile mitochondria” value was “significantly increases the proportion of motile mitochondria”. In addition, the “increase in cell viability” value in experiment [3] was “approximately 50%”. Besides, in experiment [4] (Htt96Q-expressing cells, 3 μM), the “reduction in ATF6 fragment” value is recorded as 35% and the “reduction in XBP-1s mRNA (IRE1 pathway)” value is reported as 25%. Besides, in experiment [4] (cells expressing Htt20Q), the “CHOP and GADD34 levels” value is “does not affect these factors”. Moreover, in experiment [4] (setting [9]), the “reduction of CHOP levels” value is recorded as 2.5 fold and the “reduction of GADD34 levels” value turned out to be 7 fold. Besides, the “Triton-insoluble levels of S1R-YFP” value in experiment [5] (20 h, starting 4 h post-transfection) is “increases the Triton-insoluble levels of S1R-YFP”. Further, the “increase of S1R-YFP levels above the levels in the untreated cells” value in experiment [5] (in the presence of Htt96Q-mCherry, dose-dependent, up to 150 μM, 20 h) is recorded as “up to 47%”. The “pattern (subcellular localization) of S1R-YFP” value in experiment [5] (treatment for 20 h) was “does not change the pattern of S1R-YFP”. Moreover, in experiment [6], the “Triton-insoluble levels of endogenous S1R” value is given as “also those of the endogenous S1R”. Further, the “increase of the amount of Htt96Q in SDS-insoluble aggregates” value in experiment [7] (S1R+/+ cells) is “up to 35%”. The “effect on Htt96Q in SDS-insoluble aggregates” value in experiment [7] (S1R−/− cells) was “abolished”. Also, the “decrease of ROS levels (CellRox)” value in experiment [8] was 57%.
